“Also recorded” adds a separate entry of the source.
What was measured:
Assay in all cases: T cell antigen assay, IFN-gamma ELISA response of T cell clone
Type in all cases: cell-based, NOD mouse
T cell clone BDC-6.9 = conditions: for T cell recognition/activation by HIP sequence (IFN-gamma response): BDC-6.9 (same TCR as BDC-9.3); for IFN-gamma T cell response to peptides: BDC-6.9, synthetic peptides
Method: (§1) The antigenicity of biochemical fractions, peptides, or reaction mixtures was assessed through the IFN-y responses of T-cell clones. In 96-well microtiter plates, assay cultures contained 2×10^4 responder T cells, 2.5×10^4 NOD peritoneal exudate cells as antigen-presenting cells, and -cell antigen. ELISA (BD Biosciences) was used to determine IFN-gamma production by the responder T cells. Aliquots of cell extracts (β-Mem) were used as positive controls throughout the experiments. Test wells contained biochemical fractions, peptides, or reaction mixtures. Synthetic peptides (>95%) were obtained from CHI Scientific.
(§2) For the synthesis of a HIP peptide through chemical crosslinking of an N-terminally acetylated “left peptide” and an unmodified “right peptide”, a two-step crosslinking procedure was adopted. To ensure water solubility of peptides, “left peptides” (>85%, CHI-Scientific) were N-terminally extended and “right peptides” (>85%, CHI-Scientific) were C-terminally extended through the addition of two arginine residues separated by an alanine residue from the core amino acid sequences. A total of 10 μl “left peptide” (10 mM: SEQ ID NO: 177 Acetyl-RRAHLVEAL. SEQ ID NO: 178 Acetyl-RRALVEALY, SEQ ID NO: 179 Acetyl-RRAVEALYL, SEQ ID NO. 180 Acetyl-RRAGDLQTL, SEQ ID NO: 181 Acetyl-RRADLQTLA, SEQ ID NO: 182 Acetyl-RRALQTLAL, SEQ ID NO: 183 Acetyl-RRAQTLALE, or SEQ ID NO: 184 Acetyl-RRATLALEV) was added to 74.5 μl reaction buffer (20 mM MES, 150 mM NaCl) in a 1.5 ml eppendorf tube, followed by the addition of a carbodiimide, such as, for example, 1.5 μl freshly prepared 500 mM 1-Ethyl-3-[3-dimethylaminopropyl]carbodiimide hydrochloride (EDC) and 1.5 μl 1000 mM N-hydroxysuccinimide (NHS). After 15 min of incubation at room temperature, a reducing agent was added, for example, […] of DTT (1000 mM) were added to quench residual EDC. Following another 15 min of incubation at room temperature, […] of “right peptide” (10 mM: SEQ ID NO: 185 KCNTATARR, SEQ ID NO: 186 NAARDPARR, SEQ ID NO: 187 TPVRSGTARR, or SEQ ID NO: 188 WSRMDARR) were added. Reaction mixtures were incubated for 16 h at 37° C., prior to the direct addition of […] to the T cell assay plates (see for example U.S. Pat. No. 5,589,458). ELISA was used to measure IFN-gamma T cell responses to individual HIP reaction mixtures. For each T cell clone, the ELISA absorbance values to all peptides were averaged and the standard deviation was calculated. If the absorbance value toward an individual HIP was three times the standard deviation (3×sd) above the average signal, the response toward the peptide was classified as positive.

T cell clone BDC-9.3 = conditions: for T cell recognition/activation by HIP sequence (IFN-gamma response): BDC-9.3, synthetic HIP library screen (FIG. 2E); for IFN-gamma T cell response to peptides: BDC-9.3, exemplifying the IAPP-reactive clones, synthetic peptides, FIG. 4B
Method: as §1, §2

[1] = system: CD4 T cell clone BDC-10.1; conditions: synthetic HIP library screen (FIG. 2C)
Method: as §1, §2

CD4 T cell clone BDC-2.5 = conditions: for T cell recognition/activation by HIP sequence (IFN-gamma response): BDC-2.5, synthetic HIP library screen, positive if ELISA absorbance 3×sd above average (FIG. 2B); for IFN-gamma T cell response to peptides: BDC-2.5, illustrating the WE14-reactive clones, synthetic peptides, FIG. 4A
Method: as §1, §2

[2] = system: CD4 T cell clone BDC-9.46; conditions: synthetic HIP library screen (FIG. 2D)
Method: as §1, §2

## DLQTLALNAAR [Sequence 2]
T cell clone BDC-6.9
  T cell recognition/activation by HIP sequence (IFN-gamma response): recognized
T cell clone BDC-9.3
  T cell recognition/activation by HIP sequence (IFN-gamma response): recognized

## DLQTLALWSRM [Sequence 1]
[1]
  T cell recognition/activation by HIP sequence (IFN-gamma response): recognized
CD4 T cell clone BDC-2.5
  T cell recognition/activation by HIP sequence (IFN-gamma response): recognized
[2]
  T cell recognition/activation by HIP sequence (IFN-gamma response): recognized

## IAPP2-HIP: HIP spanning full-length Ins2 C-Peptide fragment ending in LQTLAL on the N-terminal side and the entire IAPP2 sequence on the C-terminal side (EVEDPQVAQLELGGGPGAGDLQTLALNAAGDPNRESLDFLLV)
T cell clone BDC-6.9
  IFN-gamma T cell response to peptides: low nanomolar concentrations
T cell clone BDC-9.3
  IFN-gamma T cell response to peptides: low nanomolar concentrations

## IAPP2: IAPP propeptide 2, naturally occurring cleavage product found in secretory granules of β-cells (NAAGDPNRESLDFLLV)
T cell clone BDC-6.9
  IFN-gamma T cell response to peptides: Neither BDC-9.3 nor BDC-6.9 recognize
T cell clone BDC-9.3
  IFN-gamma T cell response to peptides: Neither BDC-9.3 nor BDC-6.9 recognize; also recorded: not responsive

## LQTLALNAARD [SEQ ID NO: 197]
T cell clone BDC-6.9
  T cell recognition/activation by HIP sequence (IFN-gamma response): recognized
T cell clone BDC-9.3
  T cell recognition/activation by HIP sequence (IFN-gamma response): recognized

## LQTLALWSRMD [SEQ ID NO: 199]
[1]
  T cell recognition/activation by HIP sequence (IFN-gamma response): activate
CD4 T cell clone BDC-2.5
  T cell recognition/activation by HIP sequence (IFN-gamma response): activate
[2]
  T cell recognition/activation by HIP sequence (IFN-gamma response): activate

## WE14-HIP: HIP spanning full-length Ins2 C-Peptide fragment ending in LQTLAL on the N-terminal side and the entire WE14 sequence on the C-terminal side (EVEDPQVAQLELGGGPGAGDLQTLALWSRMDQLAKELTAE)
CD4 T cell clone BDC-2.5
  IFN-gamma T cell response to peptides: low nanomolar concentrations

## WE14: naturally occurring peptide cleavage product of chromogranin A (ChgA) (WSRMDQLAKELTAE)
CD4 T cell clone BDC-2.5
  IFN-gamma T cell response to peptides: weakly antigenic; also recorded: poorly antigenic; also recorded: high concentrations

## insulin 2 C-peptide fragment ending with the amino acid sequence SEQ ID NO: 192 DLQTLAL: insulin 2 C-peptide fragment ending with DLQTLAL (EVEDPQVAQLELGGGPGAGDLQTLAL)
CD4 T cell clone BDC-2.5
  IFN-gamma T cell response to peptides: None of the clones respond
T cell clone BDC-9.3
  IFN-gamma T cell response to peptides: None of the clones respond

## insulin 2 C-peptide: full length mouse insulin 2 C-peptide (EVEDPQVAQLELGGGPGAGDLQTLALEVAQQ)
CD4 T cell clone BDC-2.5
  IFN-gamma T cell response to peptides: None of the clones respond
CD4 T cell clone BDC-2.5; listed as Ins2 C-Peptide
  IFN-gamma T cell response to peptides: None of the clones respond
CD4 T cell clone BDC-2.5; listed as insulin C-peptide
  IFN-gamma T cell response to peptides: none of the WE14-reactive T cell clones recognize
T cell clone BDC-9.3
  IFN-gamma T cell response to peptides: None of the clones respond

— patent US20180118801A1, “COMPOSITIONS AND METHODS FOR DIAGNOSING AND TREATING AUTOIMMUNE DISEASES” (THE REGENTS OF THE UNIVERSITY OF COLORADO, a body corporate, priority 2015, published 2018)
